In paper PMC6713424 (Journal of Medicinal Chemistry, 2019):
“Also recorded” adds a separate entry of the source.

Key:
[1] = system: NNMT activity (MNA production) in HSC-2 cells; test: Cellular MNA levels in HSC-2 cells; format: cell-based, human; conditions: HSC-2, 100 μM, 72 h; same effect in DMSO control
[2] = system: HSC-2 human oral cancer cells; test: MTT cell proliferation assay in HSC-2 cells; format: cell-based; conditions: HSC-2, 1-100 μM, 24, 48 and 72 h

Row | Structure (SMILES) | cellular MNA production (in words) [1] | effect on cell proliferation (in words) [2]
1 | Nc1ncnc2c1ncn2[C@@H]1O[C@H](CN(CC[C@H](N)C(=O)O)Cc2ccc3ccccc3c2)[C@@H](O)[C@H]1O [Compound 78, (S)-2-Amino-4-((((2R,3S,4R,5R)-5-(6-amino-9H-purin-9-yl)-3,4-dihydroxytetrahydrofuran-2-yl)methyl)(naphthalen-2-ylmethyl)amino)butanoic Acid] | increase in cellular MNA production | notable decrease in cell proliferation; also recorded: significant inhibitory effect on cell proliferation
2 | Nc1ncnc2c1ncn2[C@@H]1O[C@H](CN(CCC[C@H](N)C(=O)O)Cc2ccc3ccccc3c2)[C@@H](O)[C@H]1O [Compound 81, (S)-2-Amino-5-((((2R,3S,4R,5R)-5-(6-amino-9H-purin-9-yl)-3,4-dihydroxytetrahydrofuran-2-yl)methyl)(naphthalen-2-ylmethyl)amino)pentanoic Acid] | – | not significantly inhibited
3 | NC(=O)c1cccc(CN(CC[C@H](N)C(=O)O)C[C@H]2O[C@@H](n3cnc4c(N)ncnc43)[C@H](O)[C@@H]2O)c1 [Compound 1] | – | not significantly inhibited
